The target of series [1] is DLK (Homo sapiens (Human), UniProt Q12852). Description: DLK biochemical assay (TR-FRET, MKK7 phosphorylation). The essentials:
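Catalytic-domain DLK (10 nM) phosphorylates His-MKK7 (15 nM) with 60 μM ATP, 90 min at RT, in pH 7.5 HEPES buffer. Phospho-T275/S277 read by TR-FRET (Eu anti-phospho donor, XL665 anti-His acceptor) after 16 h detection, at 37° C. in 1536 or 4° C. in 384 format.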
(In general: Time-resolved FRET reads energy transfer from a long-lived donor to a nearby acceptor.)

A short description of series [2]: Mouse light damage model (serial OCT and serial ERG). The format is in vivo. As to conditions: versus vehicle. The procedure:
After two weeks (14 days) acclimation in dim light (under 10-30 lux), female BALBc/J (10-12 weeks) were dark-adapted for 24 hrs. All compound injections were done in darkness with din-red light as needed. All mice were placed in light box after applying dilator (tropicamide or phenylephirine) topically. Then light was left on for 4 h with ˜3000 lux followed by dark recovery at the same condition with dark adaptation until any experimental procedure is ready or being placed in dim light condition (under 10-30 lux). Mice were then followed for 3-7 days with OCT, ERG, functional testing, and/or immunohistochemical analysis.

For series [3], the system named is primary murine retinal ganglion cells. Briefly: Retinal ganglion cell (RGC) viability assay. The format is cell-based. As to conditions: among compounds 4, 19, 94 and 112. As to the method: The RGC assay detected the viability of primary murine retinal ganglion cells via Cell Titer Glo (Promega), using a previously described assay (Proc. Natl. Acad. Sci. USA. 2013, 110(10), 4045-50), which is incorporated herein by reference in its entirety.
RGCs were freshly isolated from approximately P2 murine retinas by immunopanning using mouse anti-CD90 coated plates. Cells are seeded into poly-D-lysine or laminin coated plates in Neurobasal medium supplemented by 1% Pen/Strep (Gibco 15140-122), 0.01 mg/ml insulin, 1 mM sodium pyruvate, 1% of 100× Sato (400 mg transferrin, 400 mg BSA, 0.25 mg progesterone, 64 mg putrescine, 160 μg sodium selenite in 40 mL Neurobasal medium), 0.04 μg/ml triiodo-thyronine, 2 mM L-glutamine, 0.05 mg/ml N-acetyl cysteine, 10 μM forskolin, 2% 50× B27 (Gibco 17504-044).
For the assay 500-2000 cells per well in a volume of 40 μl were used (384 MTP format). After 72 hours 20 μl Cell Titer Glo reagent was added and viability is measured via luminescent quantitation of ATP. The amount of ATP was directly proportional to the number of cells present in culture.

Series [4] can be described thus: In vitro PK properties (metabolic stability). The format is in vitro ADME. As to the method:
Metabolic stabilities in rat hepatocytes were determined by incubating the compounds at low concentrations (e.g., below 1 μM) and at low cell numbers (e.g., at 1×10^6 cells/ml) to ensure linear kinetics. 7 time-points from the incubation mixture were withdrawn for analysis to define the half-life of the compound. From that half-life the intrinsic clearance in hepatocytes was calculated and used further to extrapolate the blood clearance (using the well-stirred model) and the corresponding Fmax value (maximum expected bioavailability after first pass of the liver) for the compounds. The CL and Fmax values reflect Phase I and II metabolism in hepatocytes. To minimize the influence of organic solvents in the incubation mixture their content was limited to max. 1% for ACN or max. 0.2% for DMSO. The values given in row 5 in the table in FIG. 1 are rat hepatocytes CLblood [L/h/kg] and rat hepatocytes Fmax [%].

Sequence of DLK (Q12852 1-520): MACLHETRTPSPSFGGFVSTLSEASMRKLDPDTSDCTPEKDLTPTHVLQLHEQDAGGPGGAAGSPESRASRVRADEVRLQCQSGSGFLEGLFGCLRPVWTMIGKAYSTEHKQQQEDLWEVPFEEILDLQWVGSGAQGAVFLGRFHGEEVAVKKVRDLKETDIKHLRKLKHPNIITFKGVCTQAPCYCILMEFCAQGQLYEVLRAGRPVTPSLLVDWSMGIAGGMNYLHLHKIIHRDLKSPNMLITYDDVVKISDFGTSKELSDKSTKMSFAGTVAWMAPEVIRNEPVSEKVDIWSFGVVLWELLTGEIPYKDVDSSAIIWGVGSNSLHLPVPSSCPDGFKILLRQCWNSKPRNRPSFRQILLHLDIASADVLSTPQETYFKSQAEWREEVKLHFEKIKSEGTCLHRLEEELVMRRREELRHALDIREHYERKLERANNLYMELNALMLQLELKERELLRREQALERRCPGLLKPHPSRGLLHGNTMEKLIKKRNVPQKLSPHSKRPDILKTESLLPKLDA

In general, IC50 refers to the concentration that inhibits the measured activity by half. Turning to `CC[C@H](NC(=O)c1cc(-c2cc(C(=O)N[C@@H](C)CC)c3nc(N)nn3c2)cs1)c1ccc(F)cc1` [Compound 112, 2-Amino-N-[(2S)-butan-2-yl]-6-(5-{[(1S)-1-(4-fluorophenyl)propyl]carbamoyl}thiophen-3-yl)[1,2,4]triazolo[1,5-a]pyridine-8-carboxamide], in series [1], the half-inhibitory concentration (IC50) came to 3.2 nM. In series [2] (serial ERG), the “a wave amplitude in photoreceptors” value was “higher” and the “b wave amplitude in inner retinal cells” value is given as “higher”. In addition, the “outer retinal layer (ORL) thickness” value in series [2] (serial OCT) is “higher”. For the same compound, the “activity in RGC assay” value in series [3] is on record as “most active”. Also, in series [4], the metabolic stability result is given as “metabolically labile”.

(Values after US20230382904A1, “SUBSTITUTED 4-([1,2,4]TRIAZOLO[1,5-a]PYRIDIN-6-YL)THIOPHENE-2-CARBOXAMIDE DERIVATIVES AND USE THEREOF” (The Johns Hopkins University, priority 2020, published 2023).)
